Tested on: MV-4-11 cells
Experiment: Gene expression microarray analysis (Affymetrix PrimeView) and GSEA
Format: cell-based, human
Design: RFU PODN (11730768_x_at) / Fold change /veh PODN (11730768_x_at) / RFU LINC00158 (11744669_a_at) / Fold change /veh LINC00158 (11744669_a_at) / RFU DUSP10 (11751237_a_at) / Fold change /veh DUSP10 (11751237_a_at) / RFU ID3 (11757404_x_at) / Fold change /veh ID3 (11757404_x_at) / RFU PLEKHG5 (11737974_s_at) / Fold change /veh PLEKHG5 (11737974_s_at) / RFU LRRC4B (11730491_at) / Fold change /veh LRRC4B (11730491_at) / RFU GIMAP4 (11747438_a_at) / Fold change /veh GIMAP4 (11747438_a_at) / RFU KRT8 (11758183_x_at) / Fold change /veh KRT8 (11758183_x_at) / RFU CNN1 (11734310_a_at) / Fold change /veh CNN1 (11734310_a_at) / RFU VPS37D (11726825_at) / Fold change /veh VPS37D (11726825_at) / RFU C10orf10 (11716522_x_at) / Fold change /veh C10orf10 (11716522_x_at) / RFU KIR2DL2 /// KIR2DL4 /// KIR2DL5A /// KIR2DL5B /// KIR2DS1 /// KIR2DS2 /// KIR2DS3 /// KIR2DS4 /// KIR3DL3 /// KIR3DL3 /// KIR3DS1 (11738374_at) / Fold change /veh KIR2DL2 /// KIR2DL4 /// KIR2DL5A /// KIR2DL5B /// KIR2DS1 /// KIR2DS2 /// KIR2DS3 /// KIR2DS4 /// KIR3DL3 /// KIR3DL3 /// KIR3DS1 (11738374_at) / RFU C1QL1 (11718748_at) / Fold change /veh C1QL1 (11718748_at) / RFU TMPRSS4 (11747572_a_at) / Fold change /veh TMPRSS4 (11747572_a_at) / RFU HAMP (11756126_x_at) / Fold change /veh HAMP (11756126_x_at) / RFU RNFT2 (11725882_a_at) / Fold change /veh RNFT2 (11725882_a_at) / RFU NR4A2 (11747474_a_at) / Fold change /veh NR4A2 (11747474_a_at) / RFU ABCC12 (11746883_a_at) / Fold change /veh ABCC12 (11746883_a_at) / RFU TMEM136 (11760407_x_at) / Fold change /veh TMEM136 (11760407_x_at) / RFU CLDN22 /// WWC2 (11732394_at) / Fold change /veh CLDN22 /// WWC2 (11732394_at) / RFU HLA-DPB1 (11760878_x_at) / Fold change /veh HLA-DPB1 (11760878_x_at) / RFU SPINT1 (11716480_a_at) / Fold change /veh SPINT1 (11716480_a_at) / RFU GAP43 (11754022_s_at) / Fold change /veh GAP43 (11754022_s_at) / RFU A4GNT (11735810_at) / Fold change /veh A4GNT (11735810_at) / RFU PRB3 (11715151_x_at) / Fold change /veh PRB3 (11715151_x_at) / RFU TUBB4B (11761932_at) / Fold change /veh TUBB4B (11761932_at) / RFU CAPN14 (11732068_a_at) / Fold change /veh CAPN14 (11732068_a_at) / RFU TMCC2 (11721928_a_at) / Fold change /veh TMCC2 (11721928_a_at) / RFU IRGQ (11745062_a_at) / Fold change /veh IRGQ (11745062_a_at) / RFU FAM174B (11720279_a_at) / Fold change /veh FAM174B (11720279_a_at) / RFU TMPRSS4 (11748680_a_at) / Fold change /veh TMPRSS4 (11748680_a_at) / RFU FAM212B (11763350_a_at) / Fold change /veh FAM212B (11763350_a_at) / RFU PLEKHG5 (11743358_a_at) / Fold change /veh PLEKHG5 (11743358_a_at) / RFU ZSCAN30 (11745921_a_at) / Fold change /veh ZSCAN30 (11745921_a_at) / RFU CMKLR1 (11741424_a_at) / Fold change /veh CMKLR1 (11741424_a_at) / RFU LOC101060620 /// MAPK8IP1 (11723275_at) / Fold change /veh LOC101060620 /// MAPK8IP1 (11723275_at) / RFU SPTSSB (11747773_x_at) / Fold change /veh SPTSSB (11747773_x_at) / RFU PRSS12 (11739890_at) / Fold change /veh PRSS12 (11739890_at) / RFU BIN1 (11741810_x_at) / Fold change /veh BIN1 (11741810_x_at) / RFU WNT11 (11732464_a_at) / Fold change /veh WNT11 (11732464_a_at) / RFU C10orf10 (11716521_a_at) / Fold change /veh C10orf10 (11716521_a_at) / RFU C5orf56 (11738089_at) / Fold change /veh C5orf56 (11738089_at) / RFU CYB561 (11721691_x_at) / Fold change /veh CYB561 (11721691_x_at) / RFU ANKRD19P (11752326_a_at) / Fold change /veh ANKRD19P (11752326_a_at) / RFU OR2T12 /// OR2T33 /// OR2T8 (11738714_s_at) / Fold change /veh OR2T12 /// OR2T33 /// OR2T8 (11738714_s_at) / RFU VCAN (11748164_a_at) / Fold change /veh VCAN (11748164_a_at) / RFU JSRP1 (11732532_at) / Fold change /veh JSRP1 (11732532_at) / RFU KRTAP10-11 (11738290_x_at) / Fold change /veh KRTAP10-11 (11738290_x_at) / RFU MYO3A (11730013_a_at) / Fold change /veh MYO3A (11730013_a_at) / RFU EBF3 (11725865_a_at) / Fold change /veh EBF3 (11725865_a_at) / RFU CAMK2N1 (11719241_x_at) / Fold change /veh CAMK2N1 (11719241_x_at) / RFU C5orf56 (11738088_a_at) / Fold change /veh C5orf56 (11738088_a_at) / RFU OLFML3 (11715873_a_at) / Fold change /veh OLFML3 (11715873_a_at) / RFU LOC100653217 /// NTM (11731650_a_at) / Fold change /veh LOC100653217 /// NTM (11731650_a_at) / RFU MAPK11 (11762145_a_at) / Fold change /veh MAPK11 (11762145_a_at) / RFU FIZ1 (11724087_x_at) / Fold change /veh FIZ1 (11724087_x_at) / RFU OASL (11726364_x_at) / Fold change /veh OASL (11726364_x_at) / RFU SOX15 (11748057_x_at) / Fold change /veh SOX15 (11748057_x_at) / RFU CD79A (11719716_a_at) / Fold change /veh CD79A (11719716_a_at) / RFU HIST1H1D (11736915_at) / Fold change /veh HIST1H1D (11736915_at) / RFU CASKIN2 (11723855_a_at) / Fold change /veh CASKIN2 (11723855_a_at) / RFU LOC730098 (11760151_x_at) / Fold change /veh LOC730098 (11760151_x_at) / RFU OR4N2 (11742367_at) / Fold change /veh OR4N2 (11742367_at) / RFU PRRT2 (11749266_a_at) / Fold change /veh PRRT2 (11749266_a_at) / RFU SNX32 (11753110_a_at) / Fold change /veh SNX32 (11753110_a_at) / RFU CDHR5 (11726645_a_at) / Fold change /veh CDHR5 (11726645_a_at) / RFU RCAN1 (11760418_a_at) / Fold change /veh RCAN1 (11760418_a_at) / RFU FAM167A (11723789_a_at) / Fold change /veh FAM167A (11723789_a_at) / RFU FAM26E (11764081_at) / Fold change /veh FAM26E (11764081_at) / RFU ISYNA1 (11749810_s_at) / Fold change /veh ISYNA1 (11749810_s_at) / RFU ACY1 (11761880_at) / Fold change /veh ACY1 (11761880_at) / RFU 11764098_at / Fold change /veh 11764098_at / RFU SAMD14 (11745864_x_at) / Fold change /veh SAMD14 (11745864_x_at) / RFU NPB (11741838_a_at) / Fold change /veh NPB (11741838_a_at) / RFU TMPRSS6 (11731388_a_at) / Fold change /veh TMPRSS6 (11731388_a_at) / RFU KRTAP10-2 (11738614_at) / Fold change /veh KRTAP10-2 (11738614_at) / RFU ARHGAP8 /// PRR5-ARHGAP8 (11727945_x_at) / Fold change /veh ARHGAP8 /// PRR5-ARHGAP8 (11727945_x_at) / RFU KRTAP5-7 /// NADSYN1 (11734609_at) / Fold change /veh KRTAP5-7 /// NADSYN1 (11734609_at) / RFU RASL12 (11751679_a_at) / Fold change /veh RASL12 (11751679_a_at) / RFU CDKN2B (11736163_a_at) / Fold change /veh CDKN2B (11736163_a_at) / RFU PRF1 (11729649_at) / Fold change /veh PRF1 (11729649_at) / RFU, ZNF638 /// ZNF638-IT1 / Fold change vs veh, ZNF638 /// ZNF638-IT1 / RFU, PANK3 / Fold change vs veh, PANK3 / RFU, SH3YL1 / Fold change vs veh, SH3YL1 / RFU, ZEB2 / Fold change vs veh, ZEB2 / RFU, NRIP1 / Fold change vs veh, NRIP1 / RFU, PTTG1IP / Fold change vs veh, PTTG1IP / RFU, CAPN2 / Fold change vs veh, CAPN2 / RFU, MED14 / Fold change vs veh, MED14 / RFU, SNORA58 / Fold change vs veh, SNORA58 / RFU, C1orf63 / Fold change vs veh, C1orf63 / RFU, LRRFIP1 / Fold change vs veh, LRRFIP1 / RFU, NDUFAF7 / Fold change vs veh, NDUFAF7 / RFU, SLC12A2 / Fold change vs veh, SLC12A2 / RFU, IBTK / Fold change vs veh, IBTK / RFU, ESF1 / Fold change vs veh, ESF1 / Fold change vs veh, TMEM50B / RFU, TAOK1 / Fold change vs veh, TAOK1 / RFU, ACBD3 / Fold change vs veh, ACBD3 / RFU, TMA16 / Fold change vs veh, TMA16 / RFU, RWDD3 / Fold change vs veh, RWDD3 / RFU, BCAT1 / Fold change vs veh, BCAT1 / RFU, EDEM3 / Fold change vs veh, EDEM3 / RFU, TMEM33 / Fold change vs veh, TMEM33 / RFU, WDR75 / Fold change vs veh, WDR75 / RFU, AHCTF1 / Fold change vs veh, AHCTF1 / RFU, TFRC / Fold change vs veh, TFRC / RFU, ZDHHC17 / Fold change vs veh, ZDHHC17 / RFU, NOM1 / Fold change vs veh, NOM1 / RFU, ARL8B / Fold change vs veh, ARL8B / RFU, ZBTB11 / Fold change vs veh, ZBTB11 / RFU, TAMM41 / Fold change vs veh, TAMM41 / RFU, KIAA1704 /// LOC100996395 / Fold change vs veh, KIAA1704 /// LOC100996395 / RFU, ING1 / Fold change vs veh, ING1 / RFU, TRMT61B / Fold change vs veh, TRMT61B / RFU, FUBP3 / Fold change vs veh, FUBP3 / RFU, TP53 / Fold change vs veh, TP53 / RFU, TNKS2 / Fold change vs veh, TNKS2 / RFU, ZFP14 / Fold change vs veh, ZFP14 / RFU, ACTR2 / Fold change vs veh, ACTR2 / RFU, PPP3R1 / Fold change vs veh, PPP3R1 / RFU, PIK3R1 / Fold change vs veh, PIK3R1 / RFU, HNRNPA1 / Fold change vs veh, HNRNPA1 / RFU, RNF170 / Fold change vs veh, RNF170 / RFU, ZNF28 / Fold change vs veh, ZNF28 / RFU, RNGTT / Fold change vs veh, RNGTT / RFU, OGT / Fold change vs veh, OGT / RFU, BRD1 / Fold change vs veh, BRD1 / RFU, MARS / Fold change vs veh, MARS / RFU, ZNF655 / Fold change vs veh, ZNF655 / RFU, FAHD1 / Fold change vs veh, FAHD1 / RFU, BDP1 / Fold change vs veh, BDP1 / RFU, LRRCC1 / Fold change vs veh, LRRCC1 / RFU, ARID1A / Fold change vs veh, ARID1A / RFU, ZNF146 / Fold change vs veh, ZNF146 / RFU, ZNF330 / Fold change vs veh, ZNF330 / RFU, GPN3 / Fold change vs veh, GPN3 / RFU, C9orf123 / Fold change vs veh, C9orf123 / RFU, N4BP2L2 / Fold change vs veh, N4BP2L2 / RFU, ARFIP1 / Fold change vs veh, ARFIP1 / RFU, FAM179B / Fold change vs veh, FAM179B / RFU, BCL10 / Fold change vs veh, BCL10 / RFU, UHRF1BP1L / Fold change vs veh, UHRF1BP1L / RFU, BET1 / Fold change vs veh, BET1 / RFU, CNOT2 / Fold change vs veh, CNOT2 / RFU, ZNF268 / Fold change vs veh, ZNF268 / Fold change vs veh, ZNF507 / RFU, DGCR2 / Fold change vs veh, DGCR2 / RFU, WDSUB1 / Fold change vs veh, WDSUB1 / Fold change vs veh, HSP90B1 /// MIR3652 / RFU, ADSS / Fold change vs veh, ADSS / RFU, GK / Fold change vs veh, GK / RFU, ZNF148 / Fold change vs veh, ZNF148 / RFU, TAF9 / Fold change vs veh, TAF9 / RFU, SLC1A5 / Fold change vs veh, SLC1A5 / RFU, SLMO2 / Fold change vs veh, SLMO2 / RFU, ABCC4 / Fold change vs veh, ABCC4 / RFU, LOC101060439 /// RAP1B / Fold change vs veh, LOC101060439 /// RAP1B / RFU, RFX7 / Fold change vs veh, RFX7 / RFU, GTPBP10 / Fold change vs veh, GTPBP10 / RFU, CNEP1R1 / Fold change vs veh, CNEP1R1 / RFU, BIVM-ERCC5 /// ERCC5 / Fold change vs veh, BIVM-ERCC5 /// ERCC5 / RFU, ILF3 / Fold change vs veh, ILF3 / RFU 11762660_at / Fold change /veh 11762660_at / RFU VCAN (11757783_s_at) / Fold change /veh VCAN (11757783_s_at) / RFU DDX43 (11728927_at) / Fold change /veh DDX43 (11728927_at) / RFU KRT8 (11758188_x_at) / Fold change /veh KRT8 (11758188_x_at) / RFU NKD1 (11759106_at) / Fold change /veh NKD1 (11759106_at) / RFU SRD5A1 (11742802_a_at) / Fold change /veh SRD5A1 (11742802_a_at) / RFU TPSAB1 /// TPSB2 (11721975_s_at) / Fold change /veh TPSAB1 /// TPSB2 (11721975_s_at) / RFU GSTM3 (11746129_a_at) / Fold change /veh GSTM3 (11746129_a_at) / RFU IL23R (11737362_x_at) / Fold change /veh IL23R (11737362_x_at) / RFU TMEM51 (11727254_a_at) / Fold change /veh TMEM51 (11727254_a_at) / RFU PIWIL2 (11732686_x_at) / Fold change /veh PIWIL2 (11732686_x_at) / RFU ORM1 (11744905_x_at) / Fold change /veh ORM1 (11744905_x_at) / RFU CCDC152 (11743942_at) / Fold change /veh CCDC152 (11743942_at) / RFU ECM1 (11717891_a_at) / Fold change /veh ECM1 (11717891_a_at) / RFU IL23R (11748794_a_at) / Fold change /veh IL23R (11748794_a_at) / RFU TNFAIP8L3 (11732012_x_at) / Fold change /veh TNFAIP8L3 (11732012_x_at) / RFU MBOAT4 (11741988_at) / Fold change /veh MBOAT4 (11741988_at) / RFU 11764193_at / Fold change /veh 11764193_at / RFU TMEM53 (11763286_at) / Fold change /veh TMEM53 (11763286_at) / RFU MAGEB2 (11727129_at) / Fold change /veh MAGEB2 (11727129_at) / RFU TMEM200A (11744735_a_at) / Fold change /veh TMEM200A (11744735_a_at) / RFU CCDC152 (11751479_a_at) / Fold change /veh CCDC152 (11751479_a_at) / RFU FAM211A (11726209_a_at) / Fold change /veh FAM211A (11726209_a_at) / RFU RGS16 (11746705_a_at) / Fold change /veh RGS16 (11746705_a_at) / RFU VCAN (11755009_s_at) / Fold change /veh VCAN (11755009_s_at) / RFU RHOB (11743442_s_at) / Fold change /veh RHOB (11743442_s_at) / RFU RGS16 (11720943_a_at) / Fold change /veh RGS16 (11720943_a_at) / RFU RGS16 (11720944_at) / Fold change /veh RGS16 (11720944_at) / RFU, VPS4B / Fold change vs veh, VPS4B / RFU, CREB1 / Fold change vs veh, CREB1 / RFU, DNAJC13 / Fold change vs veh, DNAJC13 / RFU, GNAQ / Fold change vs veh, GNAQ / RFU, CDK5R1 / Fold change vs veh, CDK5R1 / RFU, ZRANB3 / Fold change vs veh, ZRANB3 / RFU, CUL4A / Fold change vs veh, CUL4A / RFU, CCNY / Fold change vs veh, CCNY / RFU, UFL1 / Fold change vs veh, UFL1 / RFU, COG3 / Fold change vs veh, COG3 / RFU, DIAPH2 / Fold change vs veh, DIAPH2 / RFU, SKA2 / Fold change vs veh, SKA2 / RFU, AFF3 / Fold change vs veh, AFF3 / RFU, LMF1 / Fold change vs veh, LMF1 / RFU, IPO11 / Fold change vs veh, IPO11 / RFU, DFFB / Fold change vs veh, DFFB / RFU, FOXP1 / Fold change vs veh, FOXP1 / RFU, CARD8 / Fold change vs veh, CARD8 / RFU, STRN3 / Fold change vs veh, STRN3 / RFU, ADK / Fold change vs veh, ADK / RFU, RASSF2 / Fold change vs veh, RASSF2 / RFU, WIPF1 / Fold change vs veh, WIPF1 / RFU, LARP1B / Fold change vs veh, LARP1B / RFU, RASA1 / Fold change vs veh, RASA1 / RFU, RB1 / Fold change vs veh, RB1 / RFU, PPFIA1 / Fold change vs veh, PPFIA1 / RFU, MAT2A / Fold change vs veh, MAT2A / RFU, CCT5 / Fold change vs veh, CCT5 / RFU, WDR92 / Fold change vs veh, WDR92 / RFU, CUX1 / Fold change vs veh, CUX1 / RFU, TTC7A / Fold change vs veh, TTC7A / RFU, TMEM135 / Fold change vs veh, TMEM135 / RFU, DEPTOR / Fold change vs veh, DEPTOR / RFU, CPM / Fold change vs veh, CPM / RFU, DNAJB6 / Fold change vs veh, DNAJB6 / RFU, CACNA2D3 / Fold change vs veh, CACNA2D3 / RFU, DTX4 / Fold change vs veh, DTX4 / RFU, TFCP2 / Fold change vs veh, TFCP2 / RFU, GMCL1 /// GMCL1P1 / Fold change vs veh, GMCL1 /// GMCL1P1 / RFU, AEBP2 / Fold change vs veh, AEBP2 / RFU, SNHG1 /// SNORD22 /// SNORD25 /// SNORD26 /// SNORD27 /// SNORD28 /// SNORD29 /// SNORD31 / Fold change vs veh, SNHG1 /// SNORD22 /// SNORD25 /// SNORD26 /// SNORD27 /// SNORD28 /// SNORD29 /// SNORD31 / Fold change (Aza/veh), C12orf56 (ProbeSet 11735607_a_at) / Fold change (ACY-1035/veh), C12orf56 (ProbeSet 11735607_a_at) / Fold change (Aza/veh), FGFR1OP (ProbeSet 11751329_s_at) / Fold change (ACY-1035/veh), FGFR1OP (ProbeSet 11751329_s_at) / Fold change (Aza/veh), VPS36 (ProbeSet 11739960_a_at) / Fold change (ACY-1035/veh), VPS36 (ProbeSet 11739960_a_at) / RFU SYPL1 (11715823_x_at) / Fold change /veh SYPL1 (11715823_x_at) / RFU IGFBP7 (11715501_s_at) / Fold change /veh IGFBP7 (11715501_s_at) / RFU REEP3 (11722064_at) / Fold change /veh REEP3 (11722064_at) / RFU IGLL1 (11728026_x_at) / Fold change /veh IGLL1 (11728026_x_at): dose or concentration left out as unconfirmed
Settings: ProbeSet 11743286_at; LIST D

With `Nc1ncn([C@@H]2O[C@H](CO)[C@@H](O)[C@H]2O)c(=O)n1` [azacitidine] the “RFU, DTX4” value was 164.39 RFU.

— article PMC5218480 (PLoS ONE, 2017)
